Experimental data as given in patent US8471063B2, “Michael systems as transglutaminase inhibitors” (Zedira GmbH, priority 2006, dated 2013).
Where a SMILES comes first, the peptide text is derived from it. [ ]: non-standard residue; d: D form. The star is where a group is joined. Nle(5E-ene,6-CO2Et) = CCOC(=O)/C=C/CC[C@H](N)C(=O)O; Cbz = O=C(OCc1ccccc1)*

Tests used:
dog (Irish setter) = assay: In-vivo experiment in the Irish setter fed a wheat-containing diet
Procedure: A 5 weeks old dog (Irish setter) was fed with a wheat-containing diet. […] By a jejunal biopsy a partial degradation of the intestinal villi and an increased number of intraepithelial lymphocytes were found.
This dog was fed before each meal with 75 mg/kg body weight transglutaminase inhibitor (1) in a acid-stable formulation. In the following a decrease of the diarrhea and an increase in body weight were observed.

[1] = biological target: T1, recombinant human tissue transglutaminase (His6-rh-TG2) (Homo sapiens, UniProt P21980); assay: Inactivation of human tissue transglutaminase, fluorescence assay, IC50; format: biochemical; details: Table 1; 5 min preincubation, 37° C.
T1 sequence (P21980 1-687): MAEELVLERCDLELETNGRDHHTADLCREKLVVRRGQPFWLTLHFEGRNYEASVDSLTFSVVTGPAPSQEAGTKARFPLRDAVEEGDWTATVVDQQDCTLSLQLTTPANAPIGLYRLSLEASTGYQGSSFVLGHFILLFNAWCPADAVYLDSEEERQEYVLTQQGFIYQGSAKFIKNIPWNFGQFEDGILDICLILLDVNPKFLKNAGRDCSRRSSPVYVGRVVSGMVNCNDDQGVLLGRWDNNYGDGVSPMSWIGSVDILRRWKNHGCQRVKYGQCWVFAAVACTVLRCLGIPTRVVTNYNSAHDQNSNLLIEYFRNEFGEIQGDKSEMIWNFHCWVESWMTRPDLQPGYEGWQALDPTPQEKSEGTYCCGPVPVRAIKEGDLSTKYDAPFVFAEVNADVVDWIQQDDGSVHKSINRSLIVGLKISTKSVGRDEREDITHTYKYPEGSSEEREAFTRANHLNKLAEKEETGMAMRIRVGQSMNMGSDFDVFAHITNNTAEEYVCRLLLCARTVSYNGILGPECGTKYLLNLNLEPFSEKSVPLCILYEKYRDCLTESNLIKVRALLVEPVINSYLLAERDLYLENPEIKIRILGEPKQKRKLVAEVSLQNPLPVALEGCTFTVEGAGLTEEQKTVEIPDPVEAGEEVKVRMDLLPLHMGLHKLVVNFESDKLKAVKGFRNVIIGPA
Procedure, shortened: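 10 μg His6-rh-TG2 added to a pH 7.5 Tris/CaCl2/DTT/PEG8000 assay solution holding inhibitor, 5.56 mM glycine methyl ester and 50 μM Abz-APE(CAD-DNP)QEA-OH (pre-addition levels); 5 min at 37 °C before reading. Fluorescence λexc 313/λem 418 nm over 15 min; activity from slope, IC50 relative to DMSO control.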

FXIII = biological target: T2, FXIII (Homo sapiens, UniProt P00488); assay: Transglutaminase inhibition, IC50 at FXIII; format: biochemical; details: Table 1
T2 sequence (P00488 1-732): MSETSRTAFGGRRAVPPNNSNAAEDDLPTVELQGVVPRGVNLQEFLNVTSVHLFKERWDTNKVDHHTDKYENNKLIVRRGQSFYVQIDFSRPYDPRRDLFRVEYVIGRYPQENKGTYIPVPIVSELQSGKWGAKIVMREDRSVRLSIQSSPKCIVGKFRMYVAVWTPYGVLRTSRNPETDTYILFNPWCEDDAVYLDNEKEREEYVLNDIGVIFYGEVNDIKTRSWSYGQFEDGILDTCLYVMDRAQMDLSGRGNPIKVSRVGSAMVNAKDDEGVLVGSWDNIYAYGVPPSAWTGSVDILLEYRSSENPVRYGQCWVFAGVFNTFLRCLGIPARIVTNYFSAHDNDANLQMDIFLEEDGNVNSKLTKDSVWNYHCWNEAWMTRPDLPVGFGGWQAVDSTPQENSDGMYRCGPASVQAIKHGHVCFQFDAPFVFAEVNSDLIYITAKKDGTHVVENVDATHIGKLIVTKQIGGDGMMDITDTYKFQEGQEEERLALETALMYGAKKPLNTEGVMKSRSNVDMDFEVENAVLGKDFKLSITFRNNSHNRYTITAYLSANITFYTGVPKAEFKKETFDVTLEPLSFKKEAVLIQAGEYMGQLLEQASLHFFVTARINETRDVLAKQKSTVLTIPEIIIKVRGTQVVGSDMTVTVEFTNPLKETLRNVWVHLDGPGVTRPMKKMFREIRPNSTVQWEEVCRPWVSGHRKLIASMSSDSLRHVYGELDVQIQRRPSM

[2] = test system: biopsies from the lower duodenum of patients suffering from coeliac disease; assay: Biopsy example 2: interferon-γ ELISA of PT gliadin stimulated duodenal biopsies; format: cell-based, human; details: 5 μM inhibitor preincubation, PT gliadin stimulation
Procedure: (§1) Biopsies with a diameter of about 2 mm were stored for a maximum of 30 min in ice-cold PBS after removal from the lower duodenum of patients suffering from coeliac disease. The single biopsies were transferred into the cavities of a 24-well cell culture dish and coated with 500 μl of Trowell T8 medium.
For preincubation, the transglutaminase inhibitor (1) in a final concentration of 5 μM was added to the biopsies and they were incubated for 30 min at a temperature of 37° C. in the incubator under gassing with CO2 (5%). Subsequently, stimulation with gliadin after peptic-tryptic digest (PT gliadin) used in a final concentration of 1 mg/ml was performed. PT gliadin was produced as described by Wieser and Belitz (Wieser H and Belitz HD (1992), Z Lebenm Unters Forsch 194: 229-234). The treatment with the proteases pepsin and trypsin simulates the digestion in the gastrointestinal tract. […]
Biopsies were cultivated and treated as described in biopsy example 1. After 24 and 48 hrs, 50 μl samples were taken both from the biopsy stimulated with PT gliadin and from the biopsy preincubated with inhibitor (1), which subsequently was also stimulated with PT gliadin and the samples were analyzed by means of an interferon-γ Elisa. A very high interferon-γ value of 653 pg/ml could already be measured in the biopsy stimulated with PT gliadin after 24 hrs, which value increased to 1177 pg/ml after 48 hrs.

[3] = test system: biopsies from the lower duodenum of patients suffering from coeliac disease; assay: Biopsy example 1: anti-TG2 ELISA of PT gliadin stimulated duodenal biopsies; format: cell-based, human; details: 5 μM inhibitor, 30 min preincubation, then PT gliadin 1 mg/ml, 48 hrs; medium control 1.285, PT gliadin alone 2.144
Procedure: as §1
For preincubation, the transglutaminase inhibitor (1) in a final concentration of 5 μM was added to the biopsies and they were incubated for 30 min at a temperature of 37° C. in the incubator under gassing with CO2 (5%). Subsequently, stimulation with gliadin after peptic-tryptic digest (PT gliadin) used in a final concentration of 1 mg/ml was performed. PT gliadin was produced as described by Wieser and Belitz (Wieser H and Belitz HD (1992), Z Lebenm Unters Forsch 194: 229-234). The treatment with the proteases pepsin and trypsin simulates the digestion in the gastrointestinal tract. Thus the resulting gliadin peptides correspond to those which occur in the duodenum after the intake of cereal protein. The biopsies were then incubated for another 48 hrs in the incubator under the above conditions.
Controls were incubated with inhibitor-free medium and without or respectively with PT gliadin.
After 48 hrs, 50 μl samples were taken and analyzed by means of an anti-TG2 ELISA kit.

[4] = 75 mg/kg before each meal, after two months
[5] = 75 mg/kg body weight before each meal, acid-stable formulation

How did the “length of the intestinal villi (biopsy)” value (dog (Irish setter); [4]) turn out when `CCOC(=O)/C=C/CC[C@H](NC(=O)OCc1ccccc1)C(=O)N[C@H](C(=O)N1CCC[C@H]1C(=O)N[C@@H](CC(C)C)C(=O)OC)C(C)C` [Compound 1, N^α-benzyloxycarbonyl-{[(E)-(L)-6-amino-hept-2-ene-dicarboxylic acid]-1-ethanoyl}-L-valinyl-L-prolinyl-L-leucine methyl ester] (Cbz-[Nle(5E-ene,6-CO2Et)]VPL-OMe) was run?
The value was “normal length”.

What about the “number of intraepithelial lymphocytes (biopsy)” value (dog (Irish setter); [4]) of the same molecule?
Its value is “significantly reduced”.

And the body weight (dog (Irish setter); [5])?
Its body weight is “increase”.

What about the diarrhea (dog (Irish setter); [5]) of the same molecule?
The diarrhea was “decrease”.

And the IC50 [1]?
The IC50 was 0.03 µM.

And the IC50 (FXIII)?
The IC50 was greater than 50 µM.

What about the interferon-γ value ([2]; after 24 hrs, PT gliadin alone 653 pg/ml) of the same molecule?
The interferon-γ value was 86 pg/mL.

What about the interferon-γ value ([2]; after 48 hrs, PT gliadin alone 1177 pg/ml) of the same molecule?
The interferon-γ value was 426 pg/mL.

And the “OD450 in the anti-TG2 ELISA (antibody concentration)” value [3]?
Its value is 1.401.
